Data taken from patent publication US20230270749A1, “THERMO-SENSITIVE PERMEATION ENHANCING FORMULATIONS FOR DRUG DELIVERY” (Children's Medical Center Corporation, priority 2020, published 2023).

Assays:
[1] = Systemic exposure: ciprofloxacin in plasma after gel application; assay type: in vivo, chinchilla; conditions: after hydrogel treatment
Description: The blood levels of Cip were investigated by collection of plasma samples at predetermined intervals from the transverse sinuses of chinchillas after hydrogel treatment.
NTHi OM chinchilla model and pharmacokinetics. All procedures and manipulations were performed using sedation analgesia under isoflurane chamber induction followed by mask inhalation of 1-3% isoflurane in accordance with approved IACUC protocols at Boston Children's Hospital. […] Isolates of NTHi grown to the mid-log phase were diluted in Hanks' balanced salt solution (HBSS), and about 25 to 75 CFU in […] were directly introduced into each middle ear through the dorsal aspect of the tympanic bullae under aseptic conditions. […] Serial plasma samples were also obtained through the […] during the experiment to determine systemic drug levels.

[2] = assay type: in vivo, chinchilla; conditions: healthy / OM infected chinchillas
Description: Histopathology. Hydrogel formulations were administered onto the tympanic membrane of live healthy/OM chinchillas. After 7 days later, they were euthanized as described elsewhere. The TMs were then excised and immediately fixed in 10% neutral buffered formalin overnight. The sectioned TMs (˜10 μm thick) were stained with hematoxylin and eosin, and evaluated by light microscopy in a blinded fashion.

[3] = system: H. influenza; conditions: stated without test or source; cited from earlier work
[4] = system: S. pneumoniae; conditions: stated without test or source; cited from earlier work
[5] = Solubility / dissolution in poloxamer-CPE formulations; assay type: physicochemical

Row | Structure (SMILES) | ciprofloxacin in the bloodstream at any time point throughout the course of treatment [1] | ciprofloxacin in the bloodstream at any time point throughout the course of treatment ([1]; listed as Cip) | appearance of H&E-stained TM sections after 7 days [2] | minimum inhibitory concentration for middle ear infections [3] | minimum inhibitory concentration for middle ear infections [4] | highest amount of CTX that can be dissolved in the P188-CPEs formulation while maintaining the desired rheological properties [5] [%] | highest amount of CTX that can be dissolved in the P188-CPEs formulation as a powder form within a short time (<1 minute) ([5]; powder form, <1 minute) [%]
1 | O=C(O)c1cn(C2CC2)c2cc(N3CCNCC3)c(F)cc2c1=O [ciprofloxacin] | no Ciprofloxacin was detectable | no Cip was detectable | much thicker than healthy TM | about 4 μg/mL | about 4 μg/mL |  | 
2 | CO/N=C(\C(=O)N[C@@H]1C(=O)N2C(C(=O)O)=C(CSc3nc(=O)c(=O)[nH]n3C)CS[C@H]12)c1csc(N)n1 [CTX, ceftriaxone sodium] |  |  |  |  |  | 42.6 | 28
